Measurements reported in PubChem BioAssay (NCI).
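Dose response: 5 concentrations. Exposure: 48 h. Format: 96-well plates. Endpoint: linear interpolation; highest concentration if not reached. TGI: total growth inhibition.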

Tests used:
Assay in all cases: growth of human tumour cells (NCI), 48 h
[1] = system: OVCAR-8 ovarian
[2] = system: SK-OV-3 ovarian
[3] = system: HOP-62 NSCLC
[4] = system: OVCAR-4 ovarian
[5] = system: NCI-H460 lung
[6] = system: HT29 colon
[7] = system: 786-0 renal
[8] = system: KM12 colon
[9] = system: UO-31 renal
[10] = system: COLO 205 colon
[11] = system: DMS 114 small cell lung
[12] = system: SF-539 CNS
[13] = system: HOP-92 NSCLC
[14] = system: U251 CNS
[15] = system: RPMI-8226 leukemia
[16] = system: M14 melanoma
[17] = system: NCI-H23 lung
[18] = system: SW-620 colon
[19] = system: OVCAR-5 ovarian
[20] = system: K-562 leukemia
[21] = system: RXF 393 renal
[22] = system: SK-MEL-28 melanoma
[23] = system: SK-MEL-5 melanoma
[24] = system: M19-MEL melanoma
[25] = system: UACC-62 melanoma
[26] = system: SK-MEL-2 melanoma
[27] = system: SNB-19 CNS
[28] = system: SN12C renal
[29] = system: EKVX NSCLC
[30] = system: DMS 273 small cell lung
[31] = system: ACHN renal
[32] = system: UACC-257 melanoma
[33] = system: NCI-H522 lung
[34] = system: CCRF-CEM leukemia
[35] = system: A498 renal
[36] = system: SNB-78 CNS
[37] = system: HCT-116 colon
[38] = system: CAKI-1 renal
[39] = system: TK-10 renal
[40] = system: SF-295 CNS
[41] = system: MALME-3M melanoma
[42] = system: NCI-H226 lung
[43] = system: A549 NSCLC
[44] = system: HL-60(TB) leukemia
[45] = system: KM20L2 colon
[46] = system: OVCAR-3 ovarian
[47] = system: DU-145 prostate
[48] = system: SNB-75 CNS
[49] = system: MCF7 breast
[50] = system: MDA-MB-231 breast
[51] = system: NCI/ADR-RES ovarian
[52] = system: LOX IMVI melanoma
[53] = system: SF-268 CNS
[54] = system: HS 578T breast
[55] = system: HCT-15 colon
[56] = system: HCC-2998 colon
[57] = system: BT-549 breast
[58] = system: PC-3 prostate
[59] = system: MDA-N
[60] = system: MOLT-4 leukemia
[61] = system: SR leukemia
[62] = system: MDA-MB-435
[63] = system: IGROV1 ovarian
[64] = system: T-47D breast

Measured: TGI

Cc1cc(N(CCC#N)CCC#N)ccc1N=Nc1cccc(Cl)c1
not listed: [47] | [48] | [49] | [50] | [51] | [52] | [53] | [54] | [55] | [56] | [57] | [58] | [59] | [60] | [61] | [62] | [63] | [64]
> 100 µM: all other assays above

O[C@H]1[C@H]2[C@H](O)C[C@H](CCOCc3ccccc3)CN2C[C@H]1O
not listed: [3] | [11] | [24] | [30] | [36] | [39] | [45]
> 100 µM: all other assays above
